In US12421243B2, “Pharmaceutically effective compounds inhibiting selectively the myosin 2 isoforms” (PRINTNET KERESKEDELMI ÉS SZOLGÁLTATÓ KFT., priority 2018, dated 2025):

Key:
[1] = biological target: isolated smooth muscle myosin (UniProt P10587); format: biochemical, chamois; conditions: for % inhibition at 5 μM (or 10 μM if racemate) Smooth: 5 μM (10 μM if racemate); for % inhibition at 5 μM (or 10 μM if racemate) Smooth / % inhibition at 50 μM (or 100 μM if racemate) Smooth: ATPase activity; for % inhibition at 50 μM (or 100 μM if racemate) Smooth: 50 μM (100 μM if racemate); for % inhibition. complete Smooth: maximum value of inhibition of ATPase activity
[2] = biological target: T1, isolated porcine cardiac ventricular myocardium (cardiac) (Sus scrofa, UniProt P79293); assay: actomyosin steady state ATPase measurement, cardiac myosin; format: biochemical; conditions: for IC50: concentration required for semi-maximal inhibition of ATPase; for % inhibition. complete cardiac: maximum value of inhibition of ATPase activity; for inhibition at 5 µM: read-out: % inhibition at 5 μM (or 10 μM if racemate) cardiac, 5 μM (10 μM if racemate); for inhibition at 5 µM / inhibition at 50 µM: ATPase activity; for inhibition at 50 µM: read-out: % inhibition at 50 μM (or 100 μM if racemate) cardiac, 50 μM (100 μM if racemate)
T1 construct: isolated porcine cardiac ventricular myocardium (cardiac); from tissue; host or cells: porcine cardiac ventricle
Source text: (§1) […]; (ii) the concentration required for semi-maximal inhibition.

[3] = biological target: isolated smooth muscle myosin (UniProt P10587); format: biochemical, chamois; conditions: concentration required for semi-maximal inhibition of ATPase
Source text: (ii) the concentration required for semi-maximal inhibition.

[4] = system: isolated rabbit skeletal muscle myosin (skeletal); assay: actomyosin steady state ATPase measurement, skeletal muscle myosin; format: biochemical; conditions: for % inhibition at 5 μM (or 10 μM if racemate) Skeletal: 5 μM (10 μM if racemate); for % inhibition at 5 μM (or 10 μM if racemate) Skeletal / % inhibition at 50 μM (or 100 μM if racemate) Skeletal: ATPase activity; for % inhibition at 50 μM (or 100 μM if racemate) Skeletal: 50 μM (100 μM if racemate); for IC50: concentration required for semi-maximal inhibition of ATPase; for % inhibition. complete Skeletal: maximum value of inhibition of ATPase activity; for Inhibition (%) skeletal: maximum inhibition, compounds in IC50 range 1-2 μM
Source text: as §1

[5] = biological target: recombinant Dictyostelium miozin (Dictyostelium) (Dictyostelium discoideum, UniProt P08799); assay: actomyosin steady state ATPase measurement, Dictyostelium myosin; format: biochemical; conditions: for IC50: concentration required for semi-maximal inhibition of ATPase, read-out: IC50 (μM) Dicty; for Inhibition (%) Dicty: maximum inhibition, compounds in IC50 range 1-11 μM; for % inhibition. complete Dicty: maximum value of inhibition of ATPase activity; for inhibition at 5 µM: read-out: % inhibition at 5 μM (or 10 μM if racemate) Dicty; for inhibition at 50 µM: read-out: % inhibition at 50 μM (or 100 μM if racemate) Dicty
Source text: as §1

[6] = biological target: recombinant human non-muscle myosin 2 NM2C (Homo sapiens, UniProt Q7Z406); assay: actomyosin steady state ATPase measurement, NM2C; format: biochemical; conditions: for IC50: concentration required for semi-maximal inhibition of ATPase; for % inhibition. complete NM2C: maximum value of inhibition of ATPase activity; for inhibition at 5 µM: read-out: % inhibition at 5 μM (or 10 μM if racemate) NM2C, 5 μM (10 μM if racemate); for inhibition at 5 µM / inhibition at 50 µM: ATPase activity; for inhibition at 50 µM: read-out: % inhibition at 50 μM (or 100 μM if racemate) NM2C, 50 μM (100 μM if racemate)
Source text: as §1

isolated smooth muscle myosin, sequence (P10587 whole entry): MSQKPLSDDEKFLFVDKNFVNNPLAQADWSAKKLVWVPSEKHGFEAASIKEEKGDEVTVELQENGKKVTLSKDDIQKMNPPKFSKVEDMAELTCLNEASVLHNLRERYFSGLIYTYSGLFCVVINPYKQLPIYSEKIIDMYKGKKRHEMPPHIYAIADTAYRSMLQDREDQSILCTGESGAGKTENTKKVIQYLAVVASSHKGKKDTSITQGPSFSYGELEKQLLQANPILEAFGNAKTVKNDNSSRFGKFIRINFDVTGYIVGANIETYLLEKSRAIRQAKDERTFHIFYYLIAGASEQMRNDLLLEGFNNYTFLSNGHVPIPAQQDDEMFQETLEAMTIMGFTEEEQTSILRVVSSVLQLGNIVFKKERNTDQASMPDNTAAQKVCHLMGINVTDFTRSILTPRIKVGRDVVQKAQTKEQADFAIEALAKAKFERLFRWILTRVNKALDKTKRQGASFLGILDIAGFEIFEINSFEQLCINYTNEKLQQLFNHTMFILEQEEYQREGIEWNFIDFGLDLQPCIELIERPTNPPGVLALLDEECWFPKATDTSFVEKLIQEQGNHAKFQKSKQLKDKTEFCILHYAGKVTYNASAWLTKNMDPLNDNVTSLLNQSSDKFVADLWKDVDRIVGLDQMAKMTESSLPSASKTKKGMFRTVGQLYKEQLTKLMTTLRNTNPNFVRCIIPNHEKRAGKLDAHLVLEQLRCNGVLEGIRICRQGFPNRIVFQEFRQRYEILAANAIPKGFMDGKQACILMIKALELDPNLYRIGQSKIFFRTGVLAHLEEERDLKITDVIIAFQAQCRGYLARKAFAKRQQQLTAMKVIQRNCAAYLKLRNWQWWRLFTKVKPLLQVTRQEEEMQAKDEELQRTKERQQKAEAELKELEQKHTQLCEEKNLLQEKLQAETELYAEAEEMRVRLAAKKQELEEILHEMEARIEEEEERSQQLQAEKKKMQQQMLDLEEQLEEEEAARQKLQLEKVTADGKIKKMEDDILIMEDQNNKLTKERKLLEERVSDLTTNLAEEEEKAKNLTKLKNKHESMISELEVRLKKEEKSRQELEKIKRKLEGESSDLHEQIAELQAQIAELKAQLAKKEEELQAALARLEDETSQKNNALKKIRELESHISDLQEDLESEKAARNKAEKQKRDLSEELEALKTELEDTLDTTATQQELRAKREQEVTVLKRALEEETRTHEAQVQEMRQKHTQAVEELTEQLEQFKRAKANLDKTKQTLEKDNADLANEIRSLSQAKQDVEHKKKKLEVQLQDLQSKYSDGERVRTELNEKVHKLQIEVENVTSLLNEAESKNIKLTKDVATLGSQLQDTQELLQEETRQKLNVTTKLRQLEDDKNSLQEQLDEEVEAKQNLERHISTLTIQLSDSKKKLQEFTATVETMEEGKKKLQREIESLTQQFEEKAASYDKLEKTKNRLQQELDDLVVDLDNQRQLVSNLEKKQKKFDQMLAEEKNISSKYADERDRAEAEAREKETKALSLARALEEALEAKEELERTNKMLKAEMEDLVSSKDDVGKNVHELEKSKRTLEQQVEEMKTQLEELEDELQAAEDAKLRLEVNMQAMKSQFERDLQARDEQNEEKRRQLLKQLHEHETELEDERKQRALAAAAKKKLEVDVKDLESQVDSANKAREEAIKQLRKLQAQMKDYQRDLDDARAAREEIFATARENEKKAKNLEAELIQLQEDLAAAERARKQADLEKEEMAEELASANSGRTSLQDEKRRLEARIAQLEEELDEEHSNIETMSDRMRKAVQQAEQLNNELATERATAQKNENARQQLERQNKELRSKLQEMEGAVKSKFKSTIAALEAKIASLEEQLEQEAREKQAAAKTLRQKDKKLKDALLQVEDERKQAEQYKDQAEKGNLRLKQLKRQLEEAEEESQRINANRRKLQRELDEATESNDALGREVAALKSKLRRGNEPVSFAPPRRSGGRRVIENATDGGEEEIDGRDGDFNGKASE
recombinant human non-muscle myosin 2 NM2C, sequence (Q7Z406 whole entry): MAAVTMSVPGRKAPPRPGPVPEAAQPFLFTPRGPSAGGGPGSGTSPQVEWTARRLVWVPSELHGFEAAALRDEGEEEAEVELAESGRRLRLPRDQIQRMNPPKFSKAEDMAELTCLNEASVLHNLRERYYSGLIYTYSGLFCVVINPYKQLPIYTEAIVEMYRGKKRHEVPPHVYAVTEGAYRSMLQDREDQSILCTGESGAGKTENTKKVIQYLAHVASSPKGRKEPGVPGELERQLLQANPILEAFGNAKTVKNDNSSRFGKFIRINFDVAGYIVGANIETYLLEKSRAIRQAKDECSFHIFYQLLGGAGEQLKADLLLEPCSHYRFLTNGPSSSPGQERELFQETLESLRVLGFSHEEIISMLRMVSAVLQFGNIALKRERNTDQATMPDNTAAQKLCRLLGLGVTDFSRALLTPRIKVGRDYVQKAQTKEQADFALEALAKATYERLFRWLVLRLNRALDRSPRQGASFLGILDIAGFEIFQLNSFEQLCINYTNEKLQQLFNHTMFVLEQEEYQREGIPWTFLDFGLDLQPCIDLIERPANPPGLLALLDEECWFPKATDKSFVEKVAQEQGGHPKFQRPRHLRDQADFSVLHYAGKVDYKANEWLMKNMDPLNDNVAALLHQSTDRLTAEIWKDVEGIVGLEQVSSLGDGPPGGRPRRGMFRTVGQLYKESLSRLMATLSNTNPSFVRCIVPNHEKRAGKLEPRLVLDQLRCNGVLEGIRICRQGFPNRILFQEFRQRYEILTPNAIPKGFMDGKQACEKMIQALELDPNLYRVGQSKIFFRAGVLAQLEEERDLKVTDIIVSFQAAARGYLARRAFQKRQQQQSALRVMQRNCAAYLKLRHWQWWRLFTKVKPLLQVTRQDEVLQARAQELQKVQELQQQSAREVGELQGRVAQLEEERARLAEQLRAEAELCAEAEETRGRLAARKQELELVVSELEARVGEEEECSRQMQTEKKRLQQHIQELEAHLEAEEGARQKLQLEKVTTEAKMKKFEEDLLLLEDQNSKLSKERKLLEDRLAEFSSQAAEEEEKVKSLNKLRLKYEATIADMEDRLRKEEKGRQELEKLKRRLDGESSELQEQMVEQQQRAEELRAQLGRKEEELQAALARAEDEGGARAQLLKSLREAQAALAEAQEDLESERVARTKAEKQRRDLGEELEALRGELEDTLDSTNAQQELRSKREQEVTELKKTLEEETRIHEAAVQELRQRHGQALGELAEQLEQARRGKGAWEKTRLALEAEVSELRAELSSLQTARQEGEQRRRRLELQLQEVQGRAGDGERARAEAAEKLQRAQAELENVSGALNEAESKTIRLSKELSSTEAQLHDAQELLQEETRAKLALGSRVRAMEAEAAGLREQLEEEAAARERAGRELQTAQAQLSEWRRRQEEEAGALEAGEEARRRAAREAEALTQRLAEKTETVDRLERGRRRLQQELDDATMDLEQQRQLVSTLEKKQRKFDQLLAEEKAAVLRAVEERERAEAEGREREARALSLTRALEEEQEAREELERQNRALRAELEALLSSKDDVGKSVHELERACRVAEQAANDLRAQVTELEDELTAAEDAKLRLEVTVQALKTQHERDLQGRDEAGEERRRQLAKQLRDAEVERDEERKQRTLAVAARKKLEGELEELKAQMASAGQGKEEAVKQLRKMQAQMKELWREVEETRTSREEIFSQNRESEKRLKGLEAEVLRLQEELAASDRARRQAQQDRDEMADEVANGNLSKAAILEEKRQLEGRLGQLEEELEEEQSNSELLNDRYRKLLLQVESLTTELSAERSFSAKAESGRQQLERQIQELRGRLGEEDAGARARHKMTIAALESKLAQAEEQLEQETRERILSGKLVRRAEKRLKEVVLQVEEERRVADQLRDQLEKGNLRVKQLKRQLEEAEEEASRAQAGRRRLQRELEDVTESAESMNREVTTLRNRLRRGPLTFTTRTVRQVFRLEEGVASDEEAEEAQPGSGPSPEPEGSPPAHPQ

| Compound | % inhibition at 5 μM (or 10 μM if racemate) Smooth [1] [%] | % inhibition at 50 μM (or 100 μM if racemate) Smooth [1] [%] | % inhibition. complete Smooth [1] [%] | IC50 [2] [µM] | % inhibition. complete cardiac [2] [%] | inhibition at 5 µM [2] [%] | inhibition at 50 µM [2] [%] | IC50 [3] [µM] | % inhibition at 5 μM (or 10 μM if racemate) Skeletal [4] [%] | % inhibition at 50 μM (or 100 μM if racemate) Skeletal [4] [%] | IC50 [4] [µM] | % inhibition. complete Skeletal [4] [%] | IC50 [5] [µM] | % inhibition. complete Dicty [5] [%] | inhibition at 5 µM [5] [%] | inhibition at 50 µM [5] [%] | IC50 [6] [µM] | % inhibition. complete NM2C [6] [%] | inhibition at 5 µM [6] [%] | inhibition at 50 µM [6] [%] | further results |
| --- | --- | --- | --- | --- | --- | --- | --- | --- | --- | --- | --- | --- | --- | --- | --- | --- | --- | --- | --- | --- | --- |
| Cc1cc2c(s1)N=C1N(c3ccc(CC#N)cc3)CCC1(O)C2=O (stereo not shown) [Compound 226, 2-(4-{9-Hydroxy-5-methyl-8-oxo-4-thia-2,12-diazatricyclo[7.3.0.0^3,7]dodeca-1,3(7),5-trien-12-yl}phenyl)acetonitrile] | 72 | 79 | 80 | 0.73 | 85 | 72 | 83 | 0.5 | 91 | 92 | 0.17 | 93 | 5.5 | 92 | 43 | 83 | 1.5 | 92 | 69 | 90 | Inhibition (%) Dicty [5]: 92% |
| Cc1cc2c(s1)N=C1N(c3ccc(C#N)cc3)CCC1(O)C2=O (stereo not shown) [Compound 224, 4-{9-Hydroxy-5-methyl-8-oxo-4-thia-2,12-diazatricyclo[7.3.0.0^3,7]dodeca-1,3(7),5-trien-12-yl}benzonitrile] | 72 | 96 | 99 | 1.7 | 99 | 72 | 96 | 1.7 | 94 | 98 | 0.21 | 98 | 2.8 | 89 | 64 | 86 | 1.2 | 93 | 72 | 91 | – |
| O=C1c2ccsc2N=C2N(c3ccc(CO)cc3)CC[C@@]12O [Compound 216, (9S)-9-Hydroxy-12-[4-(hydroxymethyl)phenyl]-4-thia-2,12-diazatricyclo[7.3.0.0^3,7]dodeca-1,3(7),5-trien-8-one] | 17 | 39 | 46 | 2.4 | 89 | 58 | 85 | 8.3 | 74 | 95 | 1.6 | 98 | 13.3 | 74 | 20 | 58 | 23 | 75 | 13 | 51 | Inhibition (%) skeletal [4]: 98% |
| O=C1c2ccsc2N=C2N(c3cccs3)CC[C@@]12O [Compound 218, (9S)-9-Hydroxy-12-(thiophen-2-yl)-4-thia-2,12-diazatricyclo[7.3.0.0^3,7]dodeca-1,3(7),5-trien-8-one] | 10 | 24 | 28 | 2.7 | 79 | 49 | 75 | 8.1 | 50 | 85 | 4.2 | 92 | 78 | 100 | 4 | 39 | 44 | 20 | 2 | 11 | – |
| O=C1c2ccsc2N=C2N(c3ccc(OC(F)(F)F)cc3)CC[C@@]12O [Compound 212, (9S)-9-hydroxy-12-[4-(trifluoromethoxy)phenyl]-4-thia-2,12-diazatricyclo[7.3.0.0^3,7]dodeca-1,3(7),5-trien-8-one] | 24 | 61 | 74 | 5.9 | 100 | 43 | 93 | 10.4 | 94 | 97 | 0.19 | 98 | 10.9 | 84 | 26 | 69 | 6.4 | 61 | 19 | 56 | Inhibition (%) Dicty [5]: 84% |
| Cc1cc2c(s1)N=C1N(c3ccc(N)cc3)CCC1(O)C2=O (stereo not shown) [Compound 221, 12-(4-Aminophenyl)-9-hydroxy-5-methyl-4-thia-2,12-diazatricyclo[7.3.0.0^3,7]dodeca-1,3(7),5-trien-8-one] | 43 | 87 | 97 | 0.9 | 79 | 65 | 78 | 6 | 65 | 91 | 1.8 | 92 | 11.6 | 100 | 27 | 85 | 4.1 | 61 | 32 | 56 | Inhibition (%) skeletal [4]: 92%; Inhibition (%) NM2C ([6]; maximum inhibition, compounds in IC50 range 1-5 μM): 61% |
| COc1ccc(N2CCC3(O)C(=O)c4cc(C)sc4N=C23)cc1 (stereo not shown) [Compound 222, 9-Hydroxy-12-(4-methoxyphenyl)-5-methyl-4-thia-2,12-diazatricyclo[7.3.0.0^3,7]dodeca-1,3(7),5-trien-8-one] | 83 | 97 | 98 | 0.52 | 93 | 82 | 92 | 0.86 | 92 | 95 | 0.11 | 95 | 4.7 | 100 | 49 | 99 | 0.76 | 91 | 77 | 89 | – |
